Laboratory results as given in patent US20190374627A1, “TARGET PEPTIDES FOR CANCER THERAPY AND DIAGNOSTICS” (priority 2016, published 2019).
Square brackets hold non-standard residues; d marks the D form. Ends that are not written are not given here. pT = C[C@@H](OP(=O)(O)O)[C@H](N)C(=O)O; pS = N[C@@H](COP(=O)(O)O)C(=O)O

Assays:
CD8^+ T cells (PBMCs) = assay: Intracellular cytokine staining (ICS) of PBMCs after 7 days of stimulation with MHC-I-pP (healthy donors, HH patients); assay type: cell-based, human; settings: for Reactive CD8^+ T cell population, HH2: HH patient HH2; for Reactive CD8^+ T cell population, HH3: HH patient HH3; for Reactive CD8^+ T cell population, HH6: HH patient HH6; for Reactive CD8^+ T cell population, HH8: HH patient HH8; for Reactive CD8^+ T cell population, HD1: Healthy donor HD1; for Reactive CD8^+ T cell population, HD4: Healthy donor HD4; for Reactive CD8^+ T cell population, HD5: Healthy donor HD5; for Reactive CD8^+ T cell population, HH11: HH patient HH11
Protocol: From this, CD8^+ T cell responses against newly identified MHC class I-associated phosphopeptides in healthy individuals and patients with chronic liver disease were investigated. Twenty-one of the newly identified HCC-associated HLA-A*0201-restricted phosphopeptides were selected (see Table 17) for further immunological testing in HLA-A*0201 positive patients. MHC-I-pP-specific cytotoxic CD8^+ T cell responses (ppCTL) were assessed using intracellular cytokine staining (ICS) and several cytokines and surface markers were assessed in parallel. After 7 days of stimulation with the respective MHC-I-pP and no other cytokines, CD3- and CD8-expressing T cells were stained for at least two different cytokines (IFN-γ, TNF-α) and when required CD107a expression as a marker for their cytotoxic potential.
First, peripheral blood mononuclear cells (PBMCs) from healthy donors and patients with hereditary hemochromatosis (HH) were analyzed. HH is a chronic liver disease characterized by excessive intestinal absorption of dietary iron resulting in a pathological deposition of iron in the liver. PBMCs or lymphocytes from liver tissue were extracted and specifically stimulated with (phospho-) peptides for 7 days before intracellular cytokine staining (ICS). Doublets and dead cells, using a fixable viability dye, were excluded. Lymphocytes were gated on CD3^+ and CD8^+ double positive cells and were analysed for expression of IFNγ, TNFα-, and CD107a.

[1] = tested on: expanded TIL / IHL cultures; assay: ICS for MHC-I-pP reactivity of liver-derived lymphocyte cultures after unspecific rapid expansion protocol (REP); assay type: cell-based, human
[2] = tested on: expanded lymphocyte cultures from deceased donor livers, cirrhotic livers and HCC; assay: ICS for MHC-I-pP reactivity of liver-derived lymphocyte cultures after phosphopeptide-specific expansion; assay type: cell-based, human; settings: for ppCTL response, Deceased Donor Liver Do 2 / ppCTL response, Deceased Donor Liver Do 3 / ppCTL response, Deceased Donor Liver Do 4 / ppCTL response, Deceased Donor Liver Do 6 / ppCTL response, End-stage Liver Cirrhosis IHL 11 / ppCTL response, End-stage Liver Cirrhosis IHL 12 / ppCTL response, End-stage Liver Cirrhosis IHL 13 / ppCTL response, End-stage Liver Cirrhosis IHL 15 / ppCTL response, HCC Distal HCC 1 / ppCTL response, HCC Tumor HCC 1 / ppCTL response, HCC Distal HCC 4 / ppCTL response, HCC Distal HCC 9 / ppCTL response, HCC Tumor HCC 9 / ppCTL response, HCC Distal HCC 12: pP-specifically expanded culture; for ppCTL response, HCC Distal HCC 1: HCC 1 Distal; for ppCTL response, HCC Tumor HCC 1: HCC 1 Tumor; for ppCTL response, HCC Distal HCC 4: HCC 4 Distal; for ppCTL response, HCC Distal HCC 9: HCC 9 Distal; for ppCTL response, HCC Tumor HCC 9: HCC 9 Tumor; for ppCTL response, HCC Distal HCC 12: HCC 12 Distal
[3] = tested on: unexpanded lymphocyte cultures (CD8^+ T cells); assay: ICS for MHC-I-pP reactivity of lymphocyte cultures without expansion (Table 23, No Expansion); settings: HH6

Row | Substance | Reactive CD8^+ T cell population, HH2 (CD8^+ T cells (PBMCs)) | Reactive CD8^+ T cell population, HH3 (CD8^+ T cells (PBMCs)) | Reactive CD8^+ T cell population, HH6 (CD8^+ T cells (PBMCs)) | Reactive CD8^+ T cell population, HH8 (CD8^+ T cells (PBMCs)) | Reactive CD8^+ T cell population, HD1 (CD8^+ T cells (PBMCs)) | Reactive CD8^+ T cell population, HD4 (CD8^+ T cells (PBMCs)) | Reactive CD8^+ T cell population, HD5 (CD8^+ T cells (PBMCs)) | Reactive CD8^+ T cells, Non-specific Expansion, Do2 [1] | Reactive CD8^+ T cells, Non-specific Expansion, Do4 [1] | Reactive CD8^+ T cells, Non-specific Expansion, HH6 [1] | Reactive CD8^+ T cells, pP-specific Expansion, Do2 [2] | Reactive CD8^+ T cells, pP-specific Expansion, Do4 [2] | Reactive CD8^+ T cells, pP-specific Expansion, HH6 [2] | ppCTL response, Deceased Donor Liver Do 2 [2] | ppCTL response, Deceased Donor Liver Do 3 [2] | ppCTL response, Deceased Donor Liver Do 4 [2] | ppCTL response, Deceased Donor Liver Do 6 [2] | ppCTL response, End-stage Liver Cirrhosis IHL 11 [2] | ppCTL response, End-stage Liver Cirrhosis IHL 12 [2] | ppCTL response, End-stage Liver Cirrhosis IHL 13 [2] | other results
1 | AVVsPPALHNA: BRD4 phosphopeptide, HLA-A*0201 (AVV[pS]PPALHNA; listed as Homo sapiens) | 0 (<0.25% reactive CD8^-+ T cells) | 0 (<0.25% reactive CD8^-+ T cells) | 2 (2.5-5.0% reactive CD8^-+ T cells) | 0 (<0.25% reactive CD8^-+ T cells) | 0 (<0.25% reactive CD8^-+ T cells) | 0 (<0.25% reactive CD8^-+ T cells) | 0 (<0.25% reactive CD8^-+ T cells) | 0 (<0.25% reactive CD8^-+ T cells) | 0 (<0.25% reactive CD8^-+ T cells) | 0 (<0.25% reactive CD8^-+ T cells) | 0 (<0.25% reactive CD8^-+ T cells) | 0 (<0.25% reactive CD8^-+ T cells) | 2 (2.5-5.0% reactive CD8^-+ T cells) | 0 (<0.25% reactive CD8-+ T cells) | 0 (<0.25% reactive CD8-+ T cells) | 0 (<0.25% reactive CD8-+ T cells) | 0 (<0.25% reactive CD8-+ T cells) | 0 (<0.25% reactive CD8-+ T cells) | 0 (<0.25% reactive CD8-+ T cells) | 0 (<0.25% reactive CD8-+ T cells) | ppCTL response, End-stage Liver Cirrhosis IHL 15 [2]: 0 (<0.25% reactive CD8-+ T cells); ppCTL response, HCC Distal HCC 1 [2]: 0 (<0.25% reactive CD8-+ T cells); ppCTL response, HCC Tumor HCC 1 [2]: 0 (<0.25% reactive CD8-+ T cells); ppCTL response, HCC Distal HCC 4 [2]: 0 (<0.25% reactive CD8-+ T cells); ppCTL response, HCC Distal HCC 9 [2]: 0 (<0.25% reactive CD8-+ T cells); ppCTL response, HCC Tumor HCC 9 [2]: 1 (0.25-2.5% reactive CD8-+ T cells); ppCTL response, HCC Distal HCC 12 [2]: 0 (<0.25% reactive CD8-+ T cells); Reactive CD8^+ T cells, No Expansion, HH6 [3]: 2 (2.5-5.0% reactive CD8^-+ T cells)
2 | FLDtPIAKV: NKD1 phosphopeptide, HLA-A*0201 (FLD[pT]PIAKV; listed as Homo sapiens) | 0 (<0.25% reactive CD8^-+ T cells) | 0 (<0.25% reactive CD8^-+ T cells) | 0 (<0.25% reactive CD8^-+ T cells) | 0 (<0.25% reactive CD8^-+ T cells) | 0 (<0.25% reactive CD8^-+ T cells) | 0 (<0.25% reactive CD8^-+ T cells) | 0 (<0.25% reactive CD8^-+ T cells) | 1 (0.25-2.5% reactive CD8^-+ T cells) | 0 (<0.25% reactive CD8^-+ T cells) | 0 (<0.25% reactive CD8^-+ T cells) | 0 (<0.25% reactive CD8^-+ T cells) | 0 (<0.25% reactive CD8^-+ T cells) | 2 (2.5-5.0% reactive CD8^-+ T cells) | 0 (<0.25% reactive CD8-+ T cells) | 0 (<0.25% reactive CD8-+ T cells) | 0 (<0.25% reactive CD8-+ T cells) | 0 (<0.25% reactive CD8-+ T cells) | 0 (<0.25% reactive CD8-+ T cells) | 0 (<0.25% reactive CD8-+ T cells) | 0 (<0.25% reactive CD8-+ T cells) | Reactive CD8^+ T cell population, HH11 (CD8^+ T cells (PBMCs)): 0 (<0.25% reactive CD8^-+ T cells); ppCTL response, End-stage Liver Cirrhosis IHL 15 [2]: 0 (<0.25% reactive CD8-+ T cells); ppCTL response, HCC Distal HCC 1 [2]: 0 (<0.25% reactive CD8-+ T cells); ppCTL response, HCC Tumor HCC 1 [2]: 0 (<0.25% reactive CD8-+ T cells); ppCTL response, HCC Distal HCC 4 [2]: 0 (<0.25% reactive CD8-+ T cells); ppCTL response, HCC Distal HCC 9 [2]: 0 (<0.25% reactive CD8-+ T cells); ppCTL response, HCC Tumor HCC 9 [2]: 0 (<0.25% reactive CD8-+ T cells); ppCTL response, HCC Distal HCC 12 [2]: 0 (<0.25% reactive CD8-+ T cells); Reactive CD8^+ T cells, No Expansion, HH6 [3]: 0 (<0.25% reactive CD8^-+ T cells)
3 | KAFsPVRSV: ID2 phosphopeptide, HLA-A*0201 (KAF[pS]PVRSV; listed as Homo sapiens) | 0 (<0.25% reactive CD8^-+ T cells) | 0 (<0.25% reactive CD8^-+ T cells) | 0 (<0.25% reactive CD8^-+ T cells) | 0 (<0.25% reactive CD8^-+ T cells) | 0 (<0.25% reactive CD8^-+ T cells) | 0 (<0.25% reactive CD8^-+ T cells) | 0 (<0.25% reactive CD8^-+ T cells) | 0 (<0.25% reactive CD8^-+ T cells) | 0 (<0.25% reactive CD8^-+ T cells) | 0 (<0.25% reactive CD8^-+ T cells) | 0 (<0.25% reactive CD8^-+ T cells) | 0 (<0.25% reactive CD8^-+ T cells) | 0 (<0.25% reactive CD8^-+ T cells) | 1 (0.25-2.5% reactive CD8-+ T cells) | 0 (<0.25% reactive CD8-+ T cells) | 0 (<0.25% reactive CD8-+ T cells) | 0 (<0.25% reactive CD8-+ T cells) | 0 (<0.25% reactive CD8-+ T cells) | 0 (<0.25% reactive CD8-+ T cells) | 0 (<0.25% reactive CD8-+ T cells) | Reactive CD8^+ T cell population, HH11 (CD8^+ T cells (PBMCs)): 0 (<0.25% reactive CD8^-+ T cells); ppCTL response, End-stage Liver Cirrhosis IHL 15 [2]: 0 (<0.25% reactive CD8-+ T cells); ppCTL response, HCC Distal HCC 1 [2]: 0 (<0.25% reactive CD8-+ T cells); ppCTL response, HCC Tumor HCC 1 [2]: 0 (<0.25% reactive CD8-+ T cells); ppCTL response, HCC Distal HCC 4 [2]: 0 (<0.25% reactive CD8-+ T cells); ppCTL response, HCC Distal HCC 9 [2]: 0 (<0.25% reactive CD8-+ T cells); ppCTL response, HCC Tumor HCC 9 [2]: 0 (<0.25% reactive CD8-+ T cells); ppCTL response, HCC Distal HCC 12 [2]: 0 (<0.25% reactive CD8-+ T cells); Reactive CD8^+ T cells, No Expansion, HH6 [3]: 0 (<0.25% reactive CD8^-+ T cells)
